Test results: patent US20260306502A1, “MITOCHONDRIAL UNCOUPLERS FOR TREATMENT OF METABOLIC DISEASES AND CANCER” (Mito Biopharma, LLC, priority 2022, published 2026)
“Also recorded” adds a separate entry of the source.

Key:
[1] = tested on: carbon tetrachloride (CCl4)-induced liver fibrosis NASH murine model; experiment: CCl4-induced liver fibrosis NASH murine model; assay type: in vivo, mouse; conditions: CCl4 mice
Protocol: CCl4 is a hepatotoxin that induces acute liver injury in mice and induces oxidative damage, inflammation, and liver fibrosis in mice, independent of liver steatosis, and thus is considered as a “pure” fibrotic model.
C57Bl6 male mice at the age of 7-8 weeks were randomized into 3 groups: vehicle, CCl4 alone treatment, CCl4 plus Compound treatment, n=7. CCl4 was diluted in olive oil (1:5 v/v), and intraperitoneally injected at a dose of 750 μl/kg to the mice, twice a week for 6 weeks. Compound treatment started at the beginning of CCl4 injection. At the end of treatment, the mice were euthanized and liver tissue was collected. For histology analyses, the liver tissue was fixed and paraffin embedded; tissue sections were stained with hematoxylin and eosin (H&E), or with Picrosirius red. The fibrosis severities were scored by a board-certified pathologist based on Picrosirius red stain of the liver. For immunoblotting analyses, the liver tissue was homogenized and the proteins were separated by native page gel electrophoresis. The levels of Collagen I and GAPDH were detected by Collagen I polyclonal antibody (Abcam ab34710) and GAPDH (14C10) Rabbit mAb (Cell signaling #2118).

[2] = PO pharmacokinetic study, oral exposure (Example B3); assay type: in vivo; conditions: for AUC at 24 h: blood, po, 10 mg/kg gavage; for oral absorption, systemic exposure: in words
Protocol: The blood concentration of the compound was then determined at 0 (pre-dosing), 5 min, 15 min, 30 min, 1 hr, 2 hr, 4 hr, 8 hr, 24 hr time points by LC-MS/MS analysis (See Tables 1 and 2, vide supra).

NIH3T3 = experiment: Cell growth inhibition assay (SRB), NIH3T3; assay type: cell-based; conditions: Mus musculus, NIH3T3, 48 h
Protocol: Cell growth inhibition assays were performed using a protocol standardized by National Cancer Institute (NCI) for evaluating anti-cancer drugs. Various mammalian cell lines were used for the assays. Briefly, the cells were inoculated into 96 well microtiter plates. After cell inoculation, the microtiter plates were incubated for cell growth for 24 h prior to the addition of compounds. After 24 h, two plates of each cell line were fixed in situ with TCA, to represent a measurement of the cell population for each cell line at the time of compound addition (Tz). Test compounds were solubilized in dimethyl sulfoxide. At the time of test compound addition, five 10-fold or ½ log serial dilutions were made to provide a total of five test compound concentrations plus control. Aliquots of 100 μl of these different test compound dilutions were added to the appropriate microtiter wells already containing 100 μl of the medium, resulting in the required final test compound concentrations. […] The bound stain was subsequently solubilized with 10 mM trizma base, and the absorbance was read on an automated plate reader at a wavelength of 515 nm. Using the seven absorbance measurements [time zero, (Tz), control growth, (C), and test growth in the presence of a compound at the five concentration levels (Ti)], the percentage growth was calculated at each of the test compound concentrations levels.

TGF-β signaling pathway [3] = experiment: TGF-β signaling pathway activation (Smad2/3 phosphorylation) in T cells (Jurkat, primary mouse CD8+), immunoblotting; assay type: cell-based, human Jurkat cells and mouse primary T-cells; conditions: Jurkat and mouse primary T-cells, 6 hours, FIG. 19
Protocol: Jurkat cells (a human T-cell cancer cell line) and the primary mouse CD8+ cells (T-cells) were tested. The cells were treated with TGF-β (10 ng/ml) alone, or TGF-β (10 ng/ml) plus compound at various concentrations (e.g. 0.5, 1.0, 2.0 μM), or treated with vehicle (control), for 6 hours. The cells were then harvested, and cell lysates were subjected to immunoblotting analyses with antibodies against Smad2/3, phosphorylated Smad2/3, and GAPDH.

MC38 cells = experiment: Anti-cancer effect in combination with a PD-1 inhibitor, MC38 cells transplanted in liver; assay type: in vivo, mouse; conditions: in words
Description: FIG. 20A is the experimental design (see Example B12). Briefly, C57/Bl6 mice intrahepatically transplanted with MC38 cancer cells (day 0) were subject to various treatments starting on day 7: aPD-1 or isotype, mice were either treated with PD-1 antibody or its isotype antibody (control) by intraperitoneal (IP) injection on indicated days (PD-1 antibody has a half-life of over 1 week in mice); #64 or vehicle, mice were either treated with Compound #64 or vehicle by daily gavage. FIG. 20B is a table depicting outcomes of the experiments described in FIG. 20A and Example B12. aPD-1+#64 represents mice treated with PD-1 antibody (IP) and #64 (daily gavage); aPD-1 represents mice treated with PD-1 antibody (IP) and vehicle (gavage); control, represents mice treated with isotype antibody (IP) and vehicle (gavage); n is number of mice in each group. Tumor-positive is the number of tumor-bearing mice in each group; tumor-free is the number of tumor-free mice in each group; tumor-free % is the percentage of tumor-free animals in each group. […]
The experimental design is illustrated in FIG. 20A. Mouse colon cancer cells, MC38, were transplanted in livers of immune competent B57/Bl6 mice, and the effect of the combinatory treatment was determined. […] Tumor incidence and volume were determined.

TGF-β signaling pathway [4] = experiment: TGF-β signaling pathway activation (Smad2/3 phosphorylation) in LX-2 cells, immunoblotting; assay type: cell-based, human; conditions: 6 hrs, FIG. 17B
Protocol: Cells were then harvested, and immunoblotting analyses was performed with antibodies against p-Smad2/3 (phosphorylated Smad2/3), Smad2/3, or GAPDH, as indicated.

| Compound | effect on fibrosis formation and fibrosis scores ([1]; 7.5 mg/kg/day, 6 weeks) | effect on collagen levels ([1]; immunoblotting) | AUC at 24 h [2] | oral absorption, systemic exposure [2] | GI50 (NIH3T3) | effect on TGF-β signaling pathway activation in T cells (TGF-β signaling pathway [3]) | efficacy in combinatory therapy with PD-1 antibody in treating metastatic cancer in mice (MC38 cells) | effect on TGF-β signaling pathway activation (Smad2/3 phosphorylation) (TGF-β signaling pathway [4]) |
| --- | --- | --- | --- | --- | --- | --- | --- | --- |
| COCCN(CCOC)Cc1cc(Cl)cc(C(=O)Nc2nc3ccc(C(F)(F)F)cc3s2)c1O [Compound 25, 3-((bis(2-methoxyethyl)amino)methyl)-5-chloro-2-hydroxy-N-(6-(trifluoromethyl)benzo[d]thiazol-2-yl)benzamide] | reduced fibrosis formation and improved fibrosis scores; also recorded: reduces fibrosis in CCl4 treated animals | reduces collagen levels | 10000 to 30000 ng·h/mL | excellent | > 20 µM |  |  |  |
| COCCOCc1cc(C(F)(F)F)cc2sc(NC(=O)c3cc(Cl)cc(CN4C[C@@H](C)O[C@@H](C)C4)c3O)nc12 [Compound 64, 5-chloro-3-((cis-2,6-dimethylmorpholino)methyl)-2-hydroxy-N-(4-((2-methoxyethoxy)methyl)-6-(trifluoromethyl)benzo[d]thiazol-2-yl)benzamide] |  |  | 10000 to 30000 ng·h/mL | excellent |  | effectively blocks TGF-β signaling pathway activation in T cells | efficacious in combinatory therapy with PD-1 antibody | blocks activation of TGF-β signaling pathway at early stages by inhibiting Smad2/3 phosphorylation |
